By IC50 is commonly meant the concentration that gives 50% inhibition.

T1 sequence (Q06187 whole entry): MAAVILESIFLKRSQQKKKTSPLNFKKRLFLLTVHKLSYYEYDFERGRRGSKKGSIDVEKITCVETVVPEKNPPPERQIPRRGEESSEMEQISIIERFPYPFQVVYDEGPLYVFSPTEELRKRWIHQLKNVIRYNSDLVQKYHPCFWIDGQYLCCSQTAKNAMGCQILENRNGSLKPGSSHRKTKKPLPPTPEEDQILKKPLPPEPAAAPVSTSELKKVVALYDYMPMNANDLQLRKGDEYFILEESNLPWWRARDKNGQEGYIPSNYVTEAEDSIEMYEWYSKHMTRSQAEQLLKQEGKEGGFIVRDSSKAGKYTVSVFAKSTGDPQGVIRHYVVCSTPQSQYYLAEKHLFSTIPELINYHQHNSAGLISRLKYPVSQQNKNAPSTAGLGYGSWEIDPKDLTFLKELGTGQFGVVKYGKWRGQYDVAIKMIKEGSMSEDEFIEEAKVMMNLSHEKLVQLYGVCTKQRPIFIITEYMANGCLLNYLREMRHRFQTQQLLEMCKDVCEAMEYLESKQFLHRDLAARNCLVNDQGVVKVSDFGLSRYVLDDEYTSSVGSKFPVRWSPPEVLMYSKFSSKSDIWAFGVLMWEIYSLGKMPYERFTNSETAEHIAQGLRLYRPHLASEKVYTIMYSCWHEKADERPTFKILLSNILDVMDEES

For the first assay, the system named is PBMC. Briefly: Assay B: Time Dependent PMBC IC50 Assay. It counts as cell-based.
Conditions: not given
The protocol:
Assay B: Time Dependent PMBC IC50 Assay
Compounds described by embodiments of the present invention were assayed using a time dependent PMBC assay. The data from the same is recorded in Table 2 within the column labeled: “Time Dependent PBMC Assay IC50.” These IC50 values are reported in ranges wherein: I<1 uM and II>1 uM.
In the case of `C=CC(=O)N1C[C@@H]2C[C@H]1CN2c1ccc(C(N)=O)c(Oc2ccc(Oc3ccccc3)cc2)n1` [Compound 23, 6-((1S,4S)-5-acryloyl-2,5-diazabicyclo[2.2.1]heptan-2-yl)-2-(4-phenoxyphenoxy)nicotinamide], the IC50 is < 100 nM. On the same count and under the same terms, under `C=CC(=O)N1C2CCC1CN(c1ccc(C(N)=O)c(Oc3ccc(Oc4ccccc4)cc3)n1)C2` [Compound 68, 6-(8-Acryloyl-3,8-diaza-bicyclo[3.2.1]oct-3-yl)-2-(4-phenoxy-phenoxy)-nicotinamide] stands < 100 nM.

A further assay concerns the target T1, full-length human BTK (Homo sapiens, UniProt Q06187).
T1 construct: 2.5× stocks of full-length human BTK (08-080); purchased CarnaBio USA, Inc., Natick, Mass; 08-080
Description: Assay A: BTK IC50 Enzyme Assay (microfluidic off-chip mobility shift kinase assay). It counts as biochemical. The settings on record: full-length human BTK, kinKDR peptide substrate, incubated 90 min at 27 C; read-out: Assay A (Time Dependent BTK Enzyme Assay IC50). The method in brief: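 Off-chip microfluidic mobility shift assay with full-length human BTK; phosphorylated and unphosphorylated peptide substrate were separated by charge/mass on a LabChip 3000.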
Regarding `C=CC(=O)N1CCN(c2ncc(C(N)=O)c(Oc3ccc(Oc4ccccc4)cc3)n2)C(C)C1` (centres unmarked) [Compound 218, 2-(4-acryloyl-2-methylpiperazin-1-yl)-4-(4-phenoxyphenoxy)pyrimidine-5-carboxamide], the IC50 was < 100 nM. On the same count and under the same terms, under `C=CC(=O)NC1CCN(c2cnc(Oc3ccc(Oc4cccc(F)c4)cc3)c(C(N)=O)c2)C1` (centres unmarked) [Compound 219, 5-(3-Acryloylamino-pyrrolidin-1-yl)-2-[4-(3-fluoro-phenoxy)-phenoxy]-nicotinamide] stands 100 to 1000 nM; under `C=CC(=O)NC1CCCN(c2cnc(Oc3ccc(Oc4cccc(F)c4)cc3)c(C(N)=O)c2)C1` (centres unmarked) [Compound 220, 3-Acryloylamino-6′-[4-(3-fluoro-phenoxy)-phenoxy]-3,4,5,6-tetrahydro-2H-[1,3′]bipyridinyl-5′-carboxylic acid amide], 1000 to 5000 nM. The same measure, in the same setting: the result for `C/C=C/C(=O)NC1CCN(c2cnc(Oc3ccc(Oc4cccc(F)c4)cc3)c(C(N)=O)c2)C1` (centres unmarked) [Compound 221, 5-[3-((E)-But-2-enoylamino)-pyrrolidin-1-yl]-2-[4-(3-fluoro-phenoxy)-phenoxy]-nicotinamide] reads > 5000 nM. Still for that read-out and setting: under `C/C=C/C(=O)NC1CCCN(c2cnc(Oc3ccc(Oc4cccc(F)c4)cc3)c(C(N)=O)c2)C1` (centres unmarked) [Compound 222, 3-((E)-But-2-enoylamino)-6′-[4-(3-fluoro-phenoxy)-phenoxy]-3,4,5,6-tetrahydro-2H-[1,3′]bipyridinyl-5′-carboxylic acid amide] stands > 5000 nM. Take `C=CC(=O)N1CCCC(Nc2cnc(Oc3ccc(Oc4ccccc4)cc3)c(C(N)=O)c2)C1` (centres unmarked) [Compound 223, 5-(1-Acryloyl-piperidin-3-ylamino)-2-(4-phenoxy-phenoxy)-nicotinamide]: the IC50 fell in the range of 100 to 1000 nM. `C=CC(=O)N1CCC2(CCN(c3cnc(Oc4ccc(Oc5ccccc5)cc4)c(C(N)=O)c3)C2)C1` (centres unmarked) [Compound 224, 5-(7-Acryloyl-2,7-diaza-spiro[4.4]non-2-yl)-2-(4-phenoxy-phenoxy)-nicotinamide]: the IC50 fell in the range of 100 to 1000 nM. Consider `C=CC(=O)N1CC2CCC1CN2c1ncc(C(N)=O)c(Oc2ccc(Oc3ccccc3)cc2)n1` (centres unmarked) [Compound 225, 2-(5-acryloyl-2,5-diazabicyclo[2.2.2]octan-2-yl)-4-(4-phenoxyphenoxy)pyrimidine-5-carboxamide], for which the IC50 was < 100 nM. Consider `C=CC(=O)N[C@@H]1CCCN(c2nc(Nc3ccc(N4CCN(C)CC4)cc3)c(C(N)=O)cc2F)C1` [Compound 226, (R)-3-Acryloylamino-3′-fluoro-6′-[4-(4-methyl-piperazin-1-yl)-phenylamino]-3,4,5,6-tetrahydro-2H-[1,2′]bipyridinyl-5′-carboxylic acid amide], for which the IC50 was < 100 nM.

Turning to `C=CC(=O)N1CCC(Nc2cnc(Oc3ccc(Oc4cccc(F)c4)cc3)c(C(N)=O)c2)CC1` [Compound 228, 5-(1-Acryloyl-piperidin-4-ylamino)-2-[4-(3-fluoro-phenoxy)-phenoxy]-nicotinamide], the IC50 was < 100 nM. The same measure, in the same setting: the result for `C/C=C/C(=O)N1CCC(Nc2cnc(Oc3ccc(Oc4cccc(F)c4)cc3)c(C(N)=O)c2)C1` (centres unmarked) [Compound 229, 5-[1-((E)-But-2-enoyl)-pyrrolidin-3-ylamino]-2-[4-(3-fluoro-phenoxy)-phenoxy]-nicotinamide] reads 1000 to 5000 nM; that for `C/C=C/C(=O)N1CCC(Nc2cnc(Oc3ccc(Oc4cccc(F)c4)cc3)c(C(N)=O)c2)CC1` [Compound 230, 5-[1-((E)-But-2-enoyl)-piperidin-4-ylamino]-2-[4-(3-fluoro-phenoxy)-phenoxy]-nicotinamide], 1000 to 5000 nM; that for `C/C=C/C(=O)N1CCCC(Nc2cnc(Oc3ccc(Oc4cccc(F)c4)cc3)c(C(N)=O)c2)C1` (centres unmarked) [Compound 231, (E)-5-((1-(but-2-enoyl)piperidin-3-yl)amino)-2-(4-(3-fluorophenoxy)phenoxy)nicotinamide], 1000 to 5000 nM. On the same count and under the same terms, the result for `C/C=C/C(=O)N1CCC2(CCN(c3cnc(Oc4ccc(Oc5cccc(F)c5)cc4)c(C(N)=O)c3)C2)C1` (centres unmarked) [Compound 232, (E)-5-(7-(but-2-enoyl)-2,7-diazaspiro[4.4]nonan-2-yl)-2-(4-(3-fluorophenoxy)phenoxy) nicotinamide] reads 1000 to 5000 nM. The same measure, in the same setting: under `C=CC(=O)N1CCC2(CCN(c3cnc(Oc4ccc(Oc5cccc(F)c5)cc4)c(C(N)=O)c3)C2)C1` (centres unmarked) [Compound 233, 5-(7-acryloyl-2,7-diazaspiro[4.4]nonan-2-yl)-2-(4-(3-fluorophenoxy)phenoxy)nicotinamide] stands 100 to 1000 nM; under `C/C=C/C(=O)N1CCC(Nc2cnc(Oc3ccc(Oc4ccccc4)cc3)c(C(N)=O)c2)CC1` [Compound 234, 5-[1-((E)-But-2-enoyl)-piperidin-4-ylamino]-2-(4-phenoxy-phenoxy)-nicotinamide], 1000 to 5000 nM.

On to `C/C=C/C(=O)N1CC2CN(c3cnc(Oc4ccc(Oc5cccc(F)c5)cc4)c(C(N)=O)c3)CC2C1` (centres unmarked) [Compound 235, 5-[5-((E)-But-2-enoyl)-hexahydro-pyrrolo[3,4-c]pyrrol-2-yl]-2-[4-(3-fluoro-phenoxy)-phenoxy]-nicotinamide], for which the IC50 is > 5000 nM. Same read-out and setting: the result for `N#CNC(=O)N1CCN(c2ccc(C(N)=O)c(Oc3ccc(Oc4ccccc4)cc3)n2)CC1` [Compound 237, 4-(5-carbamoyl-6-(4-phenoxyphenoxy)pyridin-2-yl)-N-cyanopiperazine-1-carboxamide] reads 1000 to 5000 nM. On the same count and under the same terms, the result for `C=CC(=O)N1CC2CN(c3cnc(Oc4ccc(Oc5cccc(F)c5)cc4)c(C(N)=O)c3)CC2C1` (centres unmarked) [Compound 238, 5-(5-Acryloyl-hexahydro-pyrrolo[3,4-c]pyrrol-2-yl)-2-[4-(3-fluoro-phenoxy)-phenoxy]-nicotinamide] reads 100 to 1000 nM.

Take `N#CN1CCCC(Nc2ncc(C(N)=O)c(Oc3ccc(Oc4ccccc4)cc3)n2)C1` (centres unmarked) [Compound 239, 2-[(1-cyanopiperidin-3-yl)amino]-4-(4-phenoxyphenoxy)pyrimidine-5-carboxamide]: the IC50 is 1000 to 5000 nM. The same measure, in the same setting: under `N#CN1CCC[C@@H](c2cnc(Oc3ccc(Oc4ccccc4)cc3)c(C(N)=O)c2)C1` [Compound 240, (S)-5-(1-cyanopiperidin-3-yl)-2-(4-phenoxyphenoxy)nicotinamide] stands 100 to 1000 nM.

Take `N#CN1CC2(CC(Nc3ncc(C(N)=O)c(Oc4ccc(Oc5ccccc5)cc4)n3)C2)C1` [Compound 242, 2-[(2-cyano-2-azaspiro[3.3]heptan-6-yl]amino)-4-(4-phenoxyphenoxy)pyrimidine-5-carboxamide]: the IC50 is > 5000 nM.

Take `N#CN1CCC(Nc2cnc(Oc3ccc(Oc4ccccc4)cc3)c(C(N)=O)c2)C1` (centres unmarked) [Compound 243, 5-[(1-cyanopyrrolidin-3-yl)amino]-2-(4-phenoxyphenoxy)pyridine-3-carboxamide]: the IC50 lay within 100 to 1000 nM. Same read-out and setting: under `N#CN1CCC(c2cnc(Oc3ccc(Oc4ccccc4)cc3)c(C(N)=O)c2)CC1` [Compound 244, 5-(1-cyanopiperidin-4-yl)-2-(4-phenoxyphenoxy)pyridine-3-carboxamide] stands 1000 to 5000 nM; under `N#CN1CCC(c2cnc(Oc3ccc(Oc4ccccc4)cc3)c(C(N)=O)c2)C1` (centres unmarked) [Compound 245, 5-(1-cyanopyrrolidin-3-yl)-2-(4-phenoxyphenoxy)pyridine-3-carboxamide], 1000 to 5000 nM. The same measure, in the same setting: under `N#CN1CCC(Nc2cnc(Oc3ccc(Oc4ccccc4)cc3)c(C(N)=O)c2)CC1` [Compound 246, 5-[(1-cyanopiperidin-4-yl)amino]-2-(4-phenoxyphenoxy)pyridine-3-carboxamide] stands > 5000 nM; under `N#CN1CCCC(Nc2cnc(Oc3ccc(Oc4ccccc4)cc3)c(C(N)=O)c2)C1` (centres unmarked) [Compound 247, 5-[(1-cyanopiperidin-3-yl)amino]-2-(4-phenoxyphenoxy)pyridine-3-carboxamide], 1000 to 5000 nM; under `N#CN1CCC[C@H](c2cnc(Oc3ccc(Oc4ccc(F)cc4F)cc3)c(C(N)=O)c2)C1` [Compound 248, 5-[(3R)-1-cyanopiperidin-3-yl]-2-[4-(2,4-difluorophenoxy)phenoxy]pyridine-3-carboxamide], 1000 to 5000 nM. Still for that read-out and setting: under `N#CN1CCC[C@@H](c2cnc(Oc3ccc(Oc4ccc(F)cc4F)cc3)c(C(N)=O)c2)C1` [Compound 249, 5-[(3S)-1-cyanopiperidin-3-yl]-2-[4-(2,4-difluorophenoxy)phenoxy]pyridine-3-carboxamide] stands > 5000 nM; under `N#CN1CCC(Nc2cnc(Oc3ccc(Oc4ccc(F)cc4F)cc3)c(C(N)=O)c2)C1` (centres unmarked) [Compound 250, 5-[(1-cyanopyrrolidin-3-yl)amino]-2-[4-(2,4-difluorophenoxy)phenoxy]pyridine-3-carboxamide], 1000 to 5000 nM; under `C=CC(=O)N1CCCC(Nc2cnc(Oc3ccc(Oc4cccc(F)c4)cc3)c(C(N)=O)c2)C1` (centres unmarked) [Compound 251], 100 to 1000 nM. On to `C=CC(=O)N1CCC(Nc2cnc(Oc3ccc(Oc4ccccc4)cc3)c(C(N)=O)c2)CC1` [Compound 252, 5-(1-Acryloyl-piperidin-4-ylamino)-2-(4-phenoxy-phenoxy)-nicotinamide], for which the IC50 was < 100 nM. Same read-out and setting: the result for `C=CC(=O)N1CCC(Nc2cnc(Oc3ccc(Oc4cccc(F)c4)cc3)c(C(N)=O)c2)C1` (centres unmarked) [Compound 253, 5-(1-Acryloyl-pyrrolidin-3-ylamino)-2-[4-(3-fluoro-phenoxy)-phenoxy]-nicotinamide] reads < 100 nM.

Source of the values: patent publication US10329270B2, “Heteroaryl compounds as BTK inhibitors and uses thereof” (Merck Patent GmbH, priority 2013, dated 2019).
